Measurements reported in ChEMBL document CHEMBL5729318, “Pharmaceutical compounds for treatment of medical disorders” (2022).

Target: Complement factor D (Homo sapiens, UniProt P00746)
Assay: Human Factor D Assay: Human Factor D (purified from human serum, Complement Technology, Inc.) at 80 nM final concentration is incubated with test compound at various concentrations for 5 min at room temperature in 50 mM Tris, 1M NaCl, pH 7.5. A synthetic substrate Z-L-Lys-SBzl and DTNB (Ellman's reagent) are added to final concentrations of 100 μM each. Absorbance at 405 nm (A405) is recorded at 30 second intervals for 30 min using a microplate spectrophotometer. IC50 values are calculated by nonlinear regression of Complement Factor D reaction rates as a function of test compound concentration.

Chain of Complement factor D (P00746 whole entry): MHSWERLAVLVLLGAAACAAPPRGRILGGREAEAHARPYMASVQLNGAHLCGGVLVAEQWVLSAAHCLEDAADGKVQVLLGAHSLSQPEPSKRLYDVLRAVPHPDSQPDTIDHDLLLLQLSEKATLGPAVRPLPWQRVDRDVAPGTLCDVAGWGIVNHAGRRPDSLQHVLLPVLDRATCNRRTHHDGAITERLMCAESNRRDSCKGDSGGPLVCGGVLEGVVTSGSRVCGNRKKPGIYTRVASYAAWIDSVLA

SMILES | IC50
CC(=O)c1nn(CC(=O)N2C[C@H](F)C[C@H]2C(=O)Nc2cccc(Br)n2)c2ccc(C3OCC(N)CO3)cc12 (stereo partly specified) | < 1000 nM
CC(=O)c1nn(CC(=O)N2[C@H](C(=O)Nc3nc(Br)ccc3C)C[C@@]3(C)C[C@@H]23)c2ccc(N)cc12 | < 1000 nM
CC(=O)c1nn(CC(=O)N2[C@H](C(=O)Nc3cccc(Br)n3)C[C@@]3(C)C[C@@H]23)c2c(C)cccc12 | < 1000 nM
CC(=O)c1nn(CC(=O)N2[C@H](C(=O)Nc3nc(Br)ccc3C)C[C@@]3(C)C[C@@H]23)c2c(C)cccc12 | < 1000 nM
CC(=O)c1nn(CC(=O)N2[C@H](C(=O)Nc3nc(Br)ccc3C)C[C@@]3(C)C[C@@H]23)c2ccc(N(C)C)cc12 | < 1000 nM
CC(=O)c1nn(CC(=O)N2[C@H](C(=O)Nc3cccc(Br)n3)C[C@@]3(C)C[C@@H]23)c2ccc(NC(=O)N3CCC(F)(F)C3)cc12 | < 1000 nM
